Consider eleven compounds from PubChem BioAssay (NCI).

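These data come from cells grown in 96-well plates and exposed to compound for 48 hours at five concentrations. Abbreviation: GI50, concentration required for 50% inhibition of growth. The concentration for full growth arrest is given as TGI.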

Some test systems named below: SW-620 colon; NCI-H226 lung; EKVX NSCLC; UACC-62 melanoma; OVCAR-5 ovarian; SK-MEL-28 melanoma; KM12 colon; RXF 393 renal; LOX IMVI melanoma; HT29 colon.
Experiment in all cases: NCI anticancer screen, dose series, 48 h

As for `Cc1[nH]c2ccccc2c1C1CC(=O)NC1=O` (stereo not given), the TGI with SW-620 colon, in the test on NCI-H226 lung, with EKVX NSCLC, with UACC-62 melanoma, in the test on OVCAR-5 ovarian and with SK-MEL-28 melanoma was greater than 100 µM throughout. In addition, the TGI in the test with KM12 colon and in the test with RXF 393 renal was greater than 100 µM each time.
Turning to `CC(C)Cc1ccc(C(C)/C=C2\CCC(CN3CCCC3)C2=O)cc1` (stereo not given), the TGI was found to be 29.7 µM with SW-620 colon; 33.1 µM in the test on NCI-H226 lung; 33.3 µM with EKVX NSCLC; 31.2 µM with UACC-62 melanoma; 36.3 µM with OVCAR-5 ovarian; 28.4 µM in the test on SK-MEL-28 melanoma. Also, the TGI turned out to be 8.49 µM in the test on LOX IMVI melanoma, 23.2 µM in the test with HT29 colon, 7.74 µM in the test on KM12 colon and 34.3 µM in the test with RXF 393 renal.
With `CC(C)c1cccc(C(C)C)c1N=C(N)C#N`, the TGI in the test on SW-620 colon was 58.5 µM; in the test on NCI-H226 lung, greater than 100 µM; with EKVX NSCLC, greater than 100 µM; in the test on UACC-62 melanoma it was 99.1 µM; in the test with OVCAR-5 ovarian, greater than 100 µM; in the test on SK-MEL-28 melanoma, greater than 100 µM. Besides, the TGI was greater than 56.2 µM with LOX IMVI melanoma, greater than 100 µM in the test on HT29 colon, greater than 100 µM in the test with KM12 colon and greater than 100 µM in the test on RXF 393 renal.
Take `C[C@@H](NC1CCC[C@@H]1O)c1ccccc1` (stereo not given in full): the TGI with SW-620 colon, in the test with NCI-H226 lung, in the test with EKVX NSCLC, with UACC-62 melanoma, with OVCAR-5 ovarian and in the test on SK-MEL-28 melanoma was greater than 100 µM each time. The TGI with LOX IMVI melanoma, in the test with HT29 colon, with KM12 colon and with RXF 393 renal was greater than 100 µM in each case.
Turning to `c1ccc2c(c1)nnn2CNc1ccc(N2CCOCC2)cc1`, the TGI in the test with SW-620 colon, in the test on NCI-H226 lung, in the test on EKVX NSCLC, in the test on UACC-62 melanoma, in the test on SK-MEL-28 melanoma and in the test on LOX IMVI melanoma was greater than 100 µM each time. Besides, the TGI with HT29 colon, with KM12 colon and in the test with RXF 393 renal was greater than 100 µM throughout.
For the compound `CC(=O)Nc1ccc2oc(=O)c3ccccc3c2c1`, the TGI in the test with SW-620 colon, in the test on NCI-H226 lung, with EKVX NSCLC, in the test on UACC-62 melanoma, in the test with OVCAR-5 ovarian and in the test on SK-MEL-28 melanoma was greater than 100 µM in each case. Besides, the TGI in the test with LOX IMVI melanoma, with HT29 colon, in the test on KM12 colon and in the test with RXF 393 renal was greater than 100 µM throughout.
Consider `CCOC(=O)/C(C#N)=C\C=C1/C=CNC2=NCCN21`, for which the TGI in the test on SW-620 colon, in the test on NCI-H226 lung, in the test on EKVX NSCLC, with UACC-62 melanoma, with SK-MEL-28 melanoma and in the test with LOX IMVI melanoma was greater than 100 µM in each case. For the same compound, the TGI in the test with HT29 colon, with KM12 colon and with RXF 393 renal was greater than 100 µM in each case.
Turning to `NC(=O)c1cc(Cl)ccc1NC(=O)c1ccccc1-c1ccccc1`, the GI50 in the test with SW-620 colon was 0.412 µM; with NCI-H226 lung, 18.4 µM; in the test on UACC-62 melanoma, 0.836 µM; with OVCAR-5 ovarian, 4.12 µM; in the test on SK-MEL-28 melanoma, 3.65 µM; in the test on LOX IMVI melanoma, 0.806 µM. Further, the GI50 in the test on HT29 colon is 0.385 µM; with KM12 colon, 0.872 µM; in the test with RXF 393 renal it was 0.806 µM. The TGI was greater than 100 µM in the test on SW-620 colon; greater than 100 µM in the test on NCI-H226 lung; 25.3 µM in the test on UACC-62 melanoma; 79.1 µM in the test on OVCAR-5 ovarian; greater than 100 µM in the test with SK-MEL-28 melanoma; 43 µM in the test with LOX IMVI melanoma. Moreover, the TGI in the test on HT29 colon stood at 11.5 µM; in the test on KM12 colon it was 46.3 µM; in the test with RXF 393 renal, 5.52 µM.
For the compound `Cc1ccc2c(N/N=C\c3ccco3)cc(C)nc2n1`, the GI50 with SW-620 colon is 3.01 µM; in the test on NCI-H226 lung, 20.1 µM; in the test with UACC-62 melanoma it was 1.81 µM; with OVCAR-5 ovarian, 11.8 µM; in the test with SK-MEL-28 melanoma, 2.11 µM; in the test with LOX IMVI melanoma, 3.76 µM. Moreover, the GI50 with HT29 colon was 2.7 µM; in the test with KM12 colon, 4.98 µM; in the test on RXF 393 renal, 4.53 µM. Further, the TGI in the test on SW-620 colon worked out at 11.6 µM; with NCI-H226 lung, 60.3 µM; in the test on UACC-62 melanoma it was 3.69 µM; in the test on OVCAR-5 ovarian it was 26.3 µM; with SK-MEL-28 melanoma, 5.35 µM; in the test with LOX IMVI melanoma it was 14 µM. Besides, the TGI in the test on HT29 colon was found to be 8.95 µM; with KM12 colon it was 17.9 µM; in the test with RXF 393 renal, 17.1 µM.
In the case of `CC1Cc2c(N)nc(N3CCOCC3)nc2NC1=O` (stereo not given), the TGI in the test on SW-620 colon, in the test with NCI-H226 lung, in the test with EKVX NSCLC, in the test on UACC-62 melanoma, in the test on SK-MEL-28 melanoma and in the test on LOX IMVI melanoma was greater than 100 µM each time. For the same compound, the TGI in the test on HT29 colon, in the test on KM12 colon and with RXF 393 renal was greater than 100 µM each time.
In the case of `CC(=O)O[C@H]1CCC2[C@@H]3CCC4Nc5c(cnn5-c5ccccc5)C[C@]4(C)C3CC[C@@]21C` (stereo not given in full), the TGI in the test with SW-620 colon was 31.3 µM; with NCI-H226 lung, 27.8 µM; in the test on EKVX NSCLC it was 16.5 µM; in the test with UACC-62 melanoma, 22.6 µM; with OVCAR-5 ovarian, 60.1 µM; with LOX IMVI melanoma, 25.4 µM. Further, the results for the TGI in the test on HT29 colon, in the test on KM12 colon and in the test on RXF 393 renal were 34.9 µM, 37.8 µM and 24.6 µM, respectively.
